Measurements reported in patent US20190119282A1, “IMIDAZOPYRIDAZINES USEFUL AS INHIBITORS OF THE PAR-2 SIGNALING PATHWAY” (Vertex Pharmaceuticals Incorporated, priority 2013, published 2019).

Key:
[1] = target: T1, PAR2 (HT-29 cells, trypsin activation) (Homo sapiens, UniProt P55085); experiment: Ca FLIPR TETRA assay, ANTAGONIST mode, stimulation with 3.1 U/mL trypsin; assay type: cell-based; settings: HT-29 cells, stimulation with 3.1 U/mL trypsin
T1 construct: host or cells: HT-29 cells
T1 sequence (P55085 26-397): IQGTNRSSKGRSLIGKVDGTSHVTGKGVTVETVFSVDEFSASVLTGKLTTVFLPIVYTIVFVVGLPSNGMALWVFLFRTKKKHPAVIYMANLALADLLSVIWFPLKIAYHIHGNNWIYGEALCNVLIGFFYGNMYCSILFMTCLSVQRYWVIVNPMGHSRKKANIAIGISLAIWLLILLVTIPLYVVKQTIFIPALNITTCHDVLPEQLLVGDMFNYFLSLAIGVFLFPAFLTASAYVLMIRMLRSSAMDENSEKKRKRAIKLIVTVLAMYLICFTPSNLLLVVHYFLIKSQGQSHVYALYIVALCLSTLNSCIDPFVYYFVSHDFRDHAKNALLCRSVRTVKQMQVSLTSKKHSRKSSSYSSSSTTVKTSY
How it was run: (§1)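 HT-29 cells grown overnight in 1% FBS McCoy's medium were loaded with calcium 5 dye (45 min 37 °C, 15 min r.t.). Compounds were added and Ca2+ read for direct activation, then after 30 min at r.t. cells were stimulated with 8 μM SLIGKV, 1 U/mL thrombin, 3.1 U/mL trypsin or 0.6 μM UTP (final).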

[2] = target: T2, PAR2 (HT-29 cells, SLIGKV activation) (Homo sapiens, UniProt P55085); experiment: Ca FLIPR TETRA assay, ANTAGONIST mode, stimulation with 8 μM SLIGKV; assay type: cell-based; settings: HT-29 cells, stimulation with 8 μM SLIGKV
T2 construct: host or cells: HT-29 cells
T2 sequence (P55085 26-397): T1 sequence (P55085 26-397)
How it was run: as §1

[3] = system: UTP-stimulated Ca2+ response in HT-29 cells; experiment: Ca FLIPR TETRA assay, ANTAGONIST mode, stimulation with 0.6 μM UTP; assay type: cell-based, human; settings: Homo sapiens, HT-29 cells, stimulation with 0.6 μM UTP
How it was run: as §1

[4] = system: Thrombin-stimulated Ca2+ response in HT-29 cells; experiment: Ca FLIPR TETRA assay, ANTAGONIST mode, stimulation with 1 U/mL Thrombin; assay type: cell-based, human; settings: Homo sapiens, HT-29 cells, stimulation with 1 U/mL Thrombin
How it was run: as §1

Row | Compound | IC50 ([1]; antagonist mode) [nM] | IC50 ([2]; antagonist mode) [nM] | IC50 ([3]; antagonist mode) [nM] | IC50 ([4]; antagonist mode) [nM] | IC50 [1] [nM] | IC50 [2] [nM] | IC50 [3] [nM] | IC50 [4] [nM]
1 | Cc1cccc(-c2cc(C(C)(C)C)c3nc(C(=O)N4CCNC(=O)C4(C)C)cn3n2)c1 [Compound I-350] | 13.7 | 12.9 | > 1000 | > 1000 |  |  |  | 
2 | Cc1cc(-c2ccc(F)cc2)nn2cc(C(=O)N3CCN(C(=O)[C@H](O)CC(C)(C)C)CC3(C)C)nc12 [Compound I-102] |  |  |  |  | 8 | 3 | 23000 | 17000
3 | Cc1cc(-c2ccc(F)cc2)nn2cc(C(=O)N3CCN(C(=O)OCc4ccccc4)[C@@H](C)C3)nc12 [Compound I-8, (S)-Benzyl 4-(6-(4-fluorophenyl)-8-methylimidazo[1,2-b]pyridazine-2-carbonyl)-2-methylpiperazine-1-carboxylate] |  |  |  |  | 690 | 180 | 31000 | 43000
4 | CC(C)c1cc(-c2ccc(F)cc2)nn2cc(C(=O)N3CCN(C(=O)c4nc[nH]n4)CC3(C)C)nc12 [Compound I-237] | 14.1 | 5.8 | > 1000 | > 1000 |  |  |  | 
5 | CC(C)c1cc(-c2ccc(F)cc2)nn2cc(C(=O)N3CCN(C#N)C(=O)C3(C)C)nc12 [Compound I-274] | 4.6 | 2.6 | > 1000 | > 1000 |  |  |  | 
6 | C[C@H]1CN(C(=O)c2cn3nc(-c4ccc(F)cc4)cc(C(F)(F)F)c3n2)CCN1C(=O)[C@@H](CC1CCCCC1)NC(=O)OC(C)(C)C [Compound I-15, tert-Butyl N-[(1R)-1-(cyclohexylmethyl)-2-[(2S)-4-[6-(4-fluorophenyl)-8-(trifluoromethyl)imidazo[1,2-b]pyridazine-2-carbonyl]-2-methyl-piperazin-1-yl]-2-oxo-ethyl]carbamate] |  |  |  |  | 58 | 47 | > 50000 | > 50000
7 | Cc1ccc(-c2cc(C(C)C)c3nc(C(=O)N4CCN(C(=O)c5ccccn5)CC4(C)C)cn3n2)cc1F [Compound I-375] | 3.8 | 2.3 | > 1000 | > 1000 |  |  |  | 
8 | CC(C)(C)c1cc(C2CCC(F)(F)CC2)nn2cc(C(=O)N3CCNC(=O)C3(C)C)nc12 [Compound I-428] | 59.7 | 30.7 | > 1000 | > 1000 |  |  |  | 
9 | Cc1cc(-c2cc(C(C)C)c3nc(C(=O)N4CCN(C(=O)C5CC(C)(O)C5)CC4(C)C)cn3n2)ccc1F (stereo not drawn) [Compound I-378] | 7.2 | 5 | > 1000 | > 1000 |  |  |  | 

More lines, now with the values ahead:

Row | IC50 ([1]; antagonist mode) [nM] | IC50 ([2]; antagonist mode) [nM] | IC50 ([3]; antagonist mode) [nM] | IC50 ([4]; antagonist mode) [nM] | IC50 [1] [nM] | IC50 [2] [nM] | IC50 [3] [nM] | IC50 [4] [nM] | Compound
10 | 2 | 1.2 | > 1000 | > 1000 |  |  |  |  | CCOC(=O)/C=C/C(=O)N1CCN(C(=O)c2cn3nc(-c4ccc(F)cc4)cc(C(C)(C)C)c3n2)C(C)(C)C1 [Compound I-531]
11 | 1 | 1 | > 1000 | > 1000 |  |  |  |  | COC(=O)[C@H]1CC[C@@H](C(=O)N2CCN(C(=O)c3cn4nc(-c5ccc(Br)cc5)cc(C(C)(C)C)c4n3)C(C)(C)C2)CC1 [Compound I-520]
12 | 0.2 | 0.1 | > 1000 | > 1000 |  |  |  |  | CC(C)(C)c1cc(-c2ccc(Cl)cc2)nn2cc(C(=O)N3CCN(C(=O)[C@H]4CC[C@@H](C(=O)O)CC4)CC3(C)C)nc12 [Compound I-490]
13 | 1050 | 773 | > 30000 | > 30000 |  |  |  |  | COC(=O)[C@H]1CC[C@@H](C(=O)N2CCN(C(=O)c3cn4nc(C(C)C)cc(C(C)C)c4n3)C(C)(C)C2)CC1 [Compound I-550]
14 | 13 | 6.2 | 820 | > 1000 |  |  |  |  | CC(C)(C)c1cc(-c2ccc(F)cc2F)nn2cc(C(=O)N3CCNC(=O)C3(C)C)nc12 [Compound I-472]
15 | 5 | 4.1 | 11100 | 21500 |  |  |  |  | CC(C)c1cc(-c2ccc(F)c(Cl)c2)nn2cc(C(=O)N3CCN(C(=O)[C@H]4CC[C@@H](C(=O)O)CC4)CC3(C)C)nc12 [Compound I-495]
